Experimental data: US6358885B1, “Substituted phenylheterocyclic herbicides” (Mississippi State University, priority 1992, dated 2002)

Key:
bedstraw = test: Test B preemergence/postemergence greenhouse plant response rating 0 to 10; format: in vivo, Galium aparine; settings: for Plant response rating, Bedstraw: 0 to 10 scale
Method in brief: (§1)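 Planted seeds are treated preemergence with compound dissolved in a non-phytotoxic solvent, while postemergence applications go onto plants of two to eighteen cm. Plants stay in the greenhouse twelve to sixteen days and are then rated visually relative to controls.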

blackgrass [1] = test: as above; format: in vivo, Alopecurus myosuroides; settings: for Plant response rating, Blackgrass: 0 to 10 scale
Method in brief: as §1

cocklebur = test: as above; format: in vivo, Xanthium pensylvanicum; settings: for Plant response rating, Cocklebur: 0 to 10 scale
Method in brief: as §1

morningglory = test: as above; format: in vivo, Ipomoea hederacea; settings: 0 to 10 scale
Method in brief: as §1

sugar beet = test: as above; format: in vivo, Beta vulgaris; settings: 0 to 10 scale
Method in brief: as §1

wild oat = test: as above; format: in vivo, Avena fatua; settings: 0 to 10 scale
Method in brief: as §1

blackgrass [2] = test: Test C preemergence/postemergence greenhouse plant response rating 0 to 100; format: in vivo, Alopecurus myosuroides; settings: for Plant response rating, Blackgrass: 0 to 100 scale
Method in brief: (§2)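 Compounds in non-phytotoxic solvent applied preemergence to sandy loam one day after planting, postemergence at the 1–4 leaf stage, or to ~2.5 cm floodwater over silt loam.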

cotton = test: as above; format: in vivo, Gossypium hirsutum; settings: for Plant response rating, Cotton: 0 to 100 scale
Method in brief: as §2

pigweed = test: as above; format: in vivo, Amaranthusretroflexus; settings: for Plant response rating Pigweed: 0 to 100 scale
Method in brief: as §2

ryegrass = test: as above; format: in vivo, Lolium multiflorum; settings: for Plant response rating Ryegrass: 0 to 100 scale
Method in brief: as §2

wheat = test: as above; format: in vivo, Triticum aestivum; settings: for Plant response rating, Wheat: 0 to 100 scale
Method in brief: as §2

barnyardgrass = test: Test C flood test plant response rating 0 to 100; format: in vivo, Echinochloa crus-galli; settings: for Plant response rating (0 to 100), Barnyardgrass: under POSTEMERGENCE head (flood test species); for Plant response rating, Barnyardgrass: flood test species listed under POSTEMERGENCE, 0 to 100 scale
Method in brief: as §2

sandbur = test: Test G preemergence/postemergence greenhouse plant response rating 0 to 100; format: in vivo, Cenchrus echinatus; settings: 0 to 100 scale
From the text: Seeds, rhizomes, or plant parts of alfalfa (Medicago ativa), annual bluegrass (Poa annua), bermudagrass (Cynodon dactylon), broadleaf signalgrass (Brachiaria plantaginea), common purslane (Portulaca oleracea), common ragweed (Ambrosia elatior), […] (Paspalum dilatatum), goosegrass (Eleusine indica), guineagrass (Panicum maximum), […] exaltata), johnsongrass (Sorghum halepense), large crabgrass (Digitaria sanguinalis), peanut (Arachis hypoagaea), pitted morningglory (Ipomoea lacunosa), purple nutsedge (Cyperus rotundus), sandbur (Cenchrus echinatus), smooth crabgrass (Digitaria ischaemum) and yellow nutsedge (Cyperus esculentus) were planted into greenhouse pots containing greenhouse planting medium. Each pot contained only one plant species. The test compound was dissolved in a non-phytotoxic solvent and applied preemergence and/or postemergence to the plants. Preemergence applications were made within one day of planting the seeds or plant parts. Postemergence applications were applied when the plants were in the two to four leaf stage (three to twenty cm). Test chemicals were dissolved in a non-phytotoxic solvent and applied preemergence and postemergence to the plants. Untreated control plants and treated plants were placed in the greenhouse and visually evaluated for injury at 13 to 21 days after herbicide application. […] A dash (-) response indicates no test result.

C#CCOc1cc(-c2nn3c(c2Br)CCCC3)c(F)cc1Cl [Compound 26]
30: Plant response rating (0 to 100), Blackgrass (blackgrass [2]; Rate 4 g/ha, POSTEMERGENCE) | Plant response rating (0 to 100), Pigweed (pigweed; PREEMERGENCE, Rate 4 g/ha) | Plant response rating Ryegrass (ryegrass; POSTEMERGENCE, 62 g/ha)
6: Plant response rating, Blackgrass (blackgrass [1]; Rate 200 g/ha, PREEMERGENCE) | Plant response rating, Wild oat (wild oat; Rate 200 g/ha, PREEMERGENCE)
10: Plant response rating, Bedstraw (bedstraw; PREEMERGENCE, Rate 50 g/ha) | Plant response rating, Bedstraw (bedstraw; Rate 200 g/ha, PREEMERGENCE) | Plant response rating (0 to 10 scale), Cocklebur (cocklebur; POSTEMERGENCE, Rate 50 g/ha) | Plant response rating, Cocklebur (cocklebur; POSTEMERGENCE, Rate 200 g/ha) | Plant response rating, Sugar beet (sugar beet; POSTEMERGENCE, Rate 50 g/ha) | Plant response rating, Sugar beet (sugar beet; POSTEMERGENCE, Rate 200 g/ha) | Plant response rating, Sugar beet (sugar beet; Rate 200 g/ha, PREEMERGENCE) | Plant response rating, Wheat (wheat; PREEMERGENCE, 250 g/ha)
40: Plant response rating, Blackgrass (blackgrass [2]; POSTEMERGENCE, 62 g/ha) | Plant response rating, Blackgrass (blackgrass [2]; PREEMERGENCE, 250 g/ha) | Plant response rating (0 to 100), Blackgrass (blackgrass [2]; Rate 16 g/ha, POSTEMERGENCE) | Plant response rating, Wheat (wheat; POSTEMERGENCE, 62 g/ha)
2: Plant response rating, Morningglory (morningglory; PREEMERGENCE, Rate 50 g/ha)
1: Plant response rating, Cocklebur (cocklebur; PREEMERGENCE, Rate 50 g/ha)
20: Plant response rating, Blackgrass (blackgrass [2]; PREEMERGENCE, 62 g/ha) | Plant response rating (0 to 100), Ryegrass (ryegrass; POSTEMERGENCE, Rate 4 g/ha) | Plant response rating Ryegrass (ryegrass; PREEMERGENCE, 250 g/ha) | Plant response rating (0 to 100), Ryegrass (ryegrass; Rate 16 g/ha, POSTEMERGENCE) | Plant response rating (0 to 100), Wheat (wheat; POSTEMERGENCE, Rate 4 g/ha) | Plant response rating (0 to 100), Wheat (wheat; Rate 16 g/ha, POSTEMERGENCE)
5: Plant response rating, Blackgrass (blackgrass [1]; POSTEMERGENCE, Rate 200 g/ha) | Plant response rating, Wild oat (wild oat; POSTEMERGENCE, Rate 50 g/ha)
60: Plant response rating, Wheat (wheat; POSTEMERGENCE, 250 g/ha)
7: Plant response rating, Wild oat (wild oat; POSTEMERGENCE, Rate 200 g/ha)
4: Plant response rating (0 to 10 scale), Blackgrass (blackgrass [1]; POSTEMERGENCE, Rate 50 g/ha) | Plant response rating, Blackgrass (blackgrass [1]; PREEMERGENCE, Rate 50 g/ha)
50: Plant response rating Ryegrass (ryegrass; POSTEMERGENCE, 250 g/ha)
9: Plant response rating (0 to 10 scale), Bedstraw (bedstraw; POSTEMERGENCE, Rate 50 g/ha) | Plant response rating, Bedstraw (bedstraw; POSTEMERGENCE, Rate 200 g/ha) | Plant response rating, Cocklebur (cocklebur; Rate 200 g/ha, PREEMERGENCE) | Plant response rating, Morningglory (morningglory; POSTEMERGENCE, Rate 50 g/ha) | Plant response rating, Morningglory (morningglory; POSTEMERGENCE, Rate 200 g/ha) | Plant response rating, Morningglory (morningglory; Rate 200 g/ha, PREEMERGENCE) | Plant response rating, Sugar beet (sugar beet; PREEMERGENCE, Rate 50 g/ha)
100: Plant response rating, Cotton (cotton; POSTEMERGENCE, 62 g/ha) | Plant response rating, Cotton (cotton; POSTEMERGENCE, 250 g/ha) | Plant response rating (0 to 100), Cotton (cotton; POSTEMERGENCE, Rate 4 g/ha) | Plant response rating, Cotton (cotton; PREEMERGENCE, 250 g/ha) | Plant response rating (0 to 100), Cotton (cotton; Rate 16 g/ha, POSTEMERGENCE) | Plant response rating Pigweed (pigweed; POSTEMERGENCE, 62 g/ha) | Plant response rating Pigweed (pigweed; POSTEMERGENCE, 250 g/ha) | Plant response rating (0 to 100), Pigweed (pigweed; POSTEMERGENCE, Rate 4 g/ha) | Plant response rating Pigweed (pigweed; PREEMERGENCE, 62 g/ha) | Plant response rating Pigweed (pigweed; PREEMERGENCE, 250 g/ha) | Plant response rating (0 to 100), Pigweed (pigweed; Rate 16 g/ha, POSTEMERGENCE) | Plant response rating (0 to 100), Pigweed (pigweed; Rate 16 g/ha, PREEMERGENCE) | Plant response rating (0 to 100), Barnyardgrass (barnyardgrass; Rate 4 g/ha) | Plant response rating (0 to 100), Barnyardgrass (barnyardgrass; Rate 16 g/ha) | Plant response rating, Barnyardgrass (barnyardgrass; 62 g/ha) | Plant response rating, Barnyardgrass (barnyardgrass; 250 g/ha)
70: Plant response rating, Blackgrass (blackgrass [2]; POSTEMERGENCE, 250 g/ha)
0: Plant response rating (0 to 100), Blackgrass (blackgrass [2]; PREEMERGENCE, Rate 4 g/ha) | Plant response rating (0 to 100), Blackgrass (blackgrass [2]; Rate 16 g/ha, PREEMERGENCE) | Plant response rating, Cotton (cotton; PREEMERGENCE, 62 g/ha) | Plant response rating (0 to 100), Cotton (cotton; PREEMERGENCE, Rate 4 g/ha) | Plant response rating (0 to 100), Cotton (cotton; Rate 16 g/ha, PREEMERGENCE) | Plant response rating Ryegrass (ryegrass; PREEMERGENCE, 62 g/ha) | Plant response rating (0 to 100), Ryegrass (ryegrass; PREEMERGENCE, Rate 4 g/ha) | Plant response rating (0 to 100), Ryegrass (ryegrass; Rate 16 g/ha, PREEMERGENCE) | Plant response rating (0 to 100), Wheat (wheat; PREEMERGENCE, Rate 4 g/ha) | Plant response rating (0 to 100), Wheat (wheat; Rate 16 g/ha, PREEMERGENCE) | Plant response rating, S. Sandbur (sandbur; POSTEMERGENCE, Rate 125 g/ha) | Plant response rating, S. Sandbur (sandbur; POSTEMERGENCE, Rate 250 g/ha) | Plant response rating, S. Sandbur (sandbur; PREEMERGENCE, Rate 125 g/ha) | Plant response rating, S. Sandbur (sandbur; PREEMERGENCE, Rate 250 g/ha)
